The target in this assay is GLP-1R (Homo sapiens, UniProt P43220). The assay can be described thus: GLP-1R Activation - cAMP Assay. It counts as cell-based. Conditions: each compound run on one of the two cAMP assays (Assay 1 or Assay 2, not specified). A digest of the protocol:
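CHO cells stably expressing GLP-1R, plated at 1,000 cells/well overnight, then equilibrated 1 h in HBSS with 20 mM Hepes and 0.1% BSA. Agonist added as 10-point dose response for 30 min at 37 °C. cAMP measured by HTRF (Cisbio Gs Dynamic kit); EC50 from sigmoidal fit.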
In general terms: Cyclic AMP is a second messenger, typically raised through Gs and lowered through Gi signalling.

The mark [1] stands for this setting: cAMP increase in CHO cells stably expressing GLP-1R.

Chain of GLP-1R (P43220 24-463): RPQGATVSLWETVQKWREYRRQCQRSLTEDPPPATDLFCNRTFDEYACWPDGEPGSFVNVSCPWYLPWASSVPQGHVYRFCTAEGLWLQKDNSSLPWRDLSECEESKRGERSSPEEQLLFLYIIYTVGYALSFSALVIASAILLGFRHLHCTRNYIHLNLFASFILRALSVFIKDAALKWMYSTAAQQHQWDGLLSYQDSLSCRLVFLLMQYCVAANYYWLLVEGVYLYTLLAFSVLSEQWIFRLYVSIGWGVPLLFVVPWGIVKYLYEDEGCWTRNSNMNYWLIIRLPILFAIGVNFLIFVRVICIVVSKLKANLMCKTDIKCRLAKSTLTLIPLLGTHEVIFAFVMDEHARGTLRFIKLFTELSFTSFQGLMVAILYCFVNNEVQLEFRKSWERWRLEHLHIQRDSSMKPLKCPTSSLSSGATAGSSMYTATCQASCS

Take `COC(=O)N1C[C@@H](OC)[C@@H](n2c(Cc3cc(F)c(-c4cccc(OCc5ccc(C#N)cc5F)n4)cc3F)nc3ccc(C(=O)O)cc32)C1` [Example 87, 2-(4-(6-((4-cyano-2-fluorobenzyl)oxy)pyridin-2-yl)-2,5-difluorobenzyl)-1-((3S,4R)-4-methoxy-1-(methoxycarbonyl)pyrrolidin-3-yl)-1H-benzo[d]imidazole-6-carboxylic Acid]: the EC50 (in general, the midpoint of the concentration-response curve) ([…]) was found to be 22500 pM.

Take `O=C(O)c1ccc2nc(Cc3cc(F)c(-c4cccc(OCc5cnc(-n6ccnn6)cc5Cl)n4)cc3F)n(CCOC3CC3)c2c1` [Example 562, 2-(4-(6-((4-chloro-6-(1H-1,2,3-triazol-1-yl)pyridin-3-yl)methoxy)pyridin-2-yl)-2,5-difluorobenzyl)-1-(2-cyclopropoxyethyl)-1H-benzo[d]imidazole-6-carboxylic acid]: under setting [1], the response was half-maximal at 207 pM (EC50). Still for that read-out and setting: with `N#Cc1ccc(COc2cccc(-c3cc(F)c(Cc4nc5ccc(C(=O)O)cc5n4C4COC5(CC5)C4)cc3F)n2)c(F)c1` (centres unmarked) [Example 203, 2-(4-(6-((4-cyano-2-fluorobenzyl)oxy)pyridin-2-yl)-2,5-difluorobenzyl)-1-(4-oxaspiro[2.4]heptan-6-yl)-1H-benzo[d]imidazole-6-carboxylic acid] the figure was 38300 pM; with `CO[C@]1(C)COC[C@H]1n1c(Cc2cc(F)c(-c3cccc(OCc4ccc(C#N)cc4F)n3)cc2F)nc2ccc(C(=O)O)cc21` (single isomer, unassigned) [Example 312], 397 pM.

Molecule `COCCn1c(Cc2cc(F)c(-c3cccc(OCc4ccc(Cl)cc4)n3)cc2Cl)nc2c(F)cc(C(=O)O)cc21` [Example 255, 2-(2-chloro-4-(6-((4-chlorobenzyl)oxy)pyridin-2-yl)-5-fluorobenzyl)-4-fluoro-1-(2-methoxyethyl)-1H-benzo[d]imidazole-6-carboxylic acid] registered a half-maximal effective concentration (EC50) under setting [1] of 108 pM.

As for `CC1(C)COCC1n1c(Cc2cc(F)c(-c3ccnc(OCc4ccc(Cl)cc4F)n3)cc2Cl)nc2c(F)cc(C(=O)O)cc21` (centres unmarked) [Example 343, 2-(2-chloro-4-(2-((4-chloro-2-fluorobenzyl)oxy)pyrimidin-4-yl)-5-fluorobenzyl)-1-(4,4-dimethyltetrahydrofuran-3-yl)-4-fluoro-1H-benzo[d]imidazole-6-carboxylic acid], the EC50 under setting [1] turned out to be 113 pM. On the same count and under the same terms, with `N#Cc1ccc(COc2cccc(-c3cc(F)c(Cc4nc5ccc(C(=O)O)cc5n4[C@H]4COC[C@H]4OCC(F)F)cc3F)n2)c(F)c1` [Example 541, 2-(4-(6-((4-cyano-2-fluorobenzyl)oxy)pyridin-2-yl)-2,5-difluorobenzyl)-1-((3S,4S)-4-(2,2-difluoroethoxy)tetrahydrofuran-3-yl)-1H-benzo[d]imidazole-6-carboxylic acid] the figure was 434 pM. Still for that read-out and setting: the result for `O=C(O)c1cc(F)c2nc(Cc3cc(F)c(-c4nccc(OCc5ccc(C(F)(F)F)cc5F)n4)cc3F)n(C[C@@H]3CCO3)c2c1` [Example 149] reads 82 pM; that for `Cc1cc(Cc2nc3ccc(C(=O)O)cc3n2[C@@H]2COCC2(C)C)c(Cl)cc1-c1ccnc(OCc2ccc(Cl)cc2F)n1` [Example 318, (S)-2-(2-chloro-4-(2-((4-chloro-2-fluorobenzyl)oxy)pyrimidin-4-yl)-5-methylbenzyl)-1-(4,4-dimethyltetrahydrofuran-3-yl)-1H-benzo[d]imidazole-6-carboxylic acid], 745 pM. The same measure, in the same setting: the result for `Cn1ccc(COc2cccc(-c3cc(F)c(Cc4nc5ccc(C(=O)O)cc5n4[C@@H]4COCC4(C)C)cc3F)n2)cc1=O` [Example 427, (S)-2-(2,5-difluoro-4-(6-((1-methyl-2-oxo-1,2-dihydropyridin-4-yl)methoxy)pyridin-2-yl)benzyl)-1-(4,4-dimethyltetrahydrofuran-3-yl)-1H-benzo[d]imidazole-6-carboxylic acid] reads 501 pM; that for `COCCn1c(Cc2cc(F)c(-c3cccc(OCc4ccc(-c5cncn5C)cc4F)n3)cc2F)nc2ccc(C(=O)O)cc21` [Example 113], 11000 pM. `CC1(C)COCCC1n1c(Cc2cc(F)c(-c3cccc(OCc4ccc(C#N)cc4F)n3)cc2F)nc2ccc(C(=O)O)cc21` (centres unmarked) [Example 83, 2-(4-(6-((4-cyano-2-fluorobenzyl)oxy)pyridin-2-yl)-2,5-difluorobenzyl)-1-(3,3-dimethyltetrahydro-2H-pyran-4-yl)-1H-benzo[d]imidazole-6-carboxylic Acid] gave an EC50 under setting [1] of 620 pM. Still for that read-out and setting: the result for `CC[C@@H]1OCC[C@H]1n1c(Cc2cc(F)c(-c3cccc(OCc4ccc(C#N)cc4F)n3)cc2F)nc2ccc(C(=O)O)cc21` [Example 197, 2-(4-(6-((4-cyano-2-fluorobenzyl)oxy)pyridin-2-yl)-2,5-difluorobenzyl)-1-((2S,3R)-2-ethyltetrahydrofuran-3-yl)-1H-benzo[d]imidazole-6-carboxylic acid] reads 6620 pM; that for `COCCOCCOCCn1cc(-c2ccc(COc3cccc(-c4cc(F)c(Cc5nc6ccc(C(=O)O)cc6n5CCOC)cc4F)n3)c(F)c2)cn1` [Example 98], 1430 pM; that for `Cn1nnc2ccc(COc3cccc(-c4cc(F)c(Cc5nc6ccc(C(=O)O)cc6n5[C@@H]5COCC5(C)C)cc4F)n3)cc21` [Example 513, (S)-2-(2,5-difluoro-4-(6-((1-methyl-1H-benzo[d][1,2,3]triazol-6-yl)methoxy)pyridin-2-yl)benzyl)-1-(4,4-dimethyltetrahydrofuran-3-yl)-1H-benzo[d]imidazole-6-carboxylic acid], 208 pM. Still for that read-out and setting: with `CC1(C)COCC1n1c(Cc2c(F)cc(-c3cccc(OCc4ccc(C#N)cc4F)n3)c(F)c2F)nc2ccc(C(=O)O)cc21` (centres unmarked) [Example 293, 2-(4-(6-((4-cyano-2-fluorobenzyl)oxy)pyridin-2-yl)-2,3,6-trifluorobenzyl)-1-(4,4-dimethyltetrahydrofuran-3-yl)-1H-benzo[d]imidazole-6-carboxylic acid] the figure was 40 pM; with `CC(=O)NCc1cc(F)c(COc2cccc(-c3cc(F)c(Cc4nc5ccc(C(=O)O)cc5n4C[C@@H]4CCO4)cc3F)n2)cn1` [Example 147, (S)-2-(4-(6-((6-(acetamidomethyl)-4-fluoropyridin-3-yl)methoxy)pyridin-2-yl)-2,5-difluorobenzyl)-1-(oxetan-2-ylmethyl)-1H-benzo[d]imidazole-6-carboxylic Acid], 233 pM; with `N#Cc1ccc(COc2cccc(-c3cc(F)c(Cc4nc5ccc(C(=O)O)cc5n4[C@@H]4C[C@@H]5CC[C@H]4O5)cc3F)n2)c(F)c1` [Example 187, 1-((1R,2R,4S)-7-oxabicyclo[2.2.1]heptan-2-yl)-2-(4-(6-((4-cyano-2-fluorobenzyl)oxy)pyridin-2-yl)-2,5-difluorobenzyl)-1H-benzo[d]imidazole-6-carboxylic acid], 391 pM. On the same count and under the same terms, with `COCCn1c(Cc2cc(F)c(-c3cccc(OCc4cnc(C)cn4)n3)cc2F)nc2ccc(C(=O)O)cc21` [Example 29, 2-(2,5-difluoro-4-(6-((5-methylpyrazin-2-yl)methoxy)pyridin-2-yl)benzyl)-1-(2-methoxyethyl)-1H-benzo[d]imidazole-6-carboxylic Acid] the figure was 36000 pM; with `CC1(C)COC[C@H]1n1c(Cc2cc(F)c(-c3cccc(OCc4ccc(C#N)cc4)n3)cc2F)nc2cc(O)c(C(=O)O)cc21` [Example 401, (S)-2-(4-(6-((4-cyanobenzyl)oxy)pyridin-2-yl)-2,5-difluorobenzyl)-1-(4,4-dimethyltetrahydrofuran-3-yl)-5-hydroxy-1H-benzo[d]imidazole-6-carboxylic acid], 247 pM.

The values are drawn from patent US12570642B2, “GLP-IR modulating compounds” (Gilead Sciences, Inc., priority 2021, dated 2026).
